According to US8653095B2, “Small molecules with antimalarial activity” (Radix Pharmaceuticals, Inc., priority 2011, dated 2014):
Entries after “also recorded” stand apart in the source; their conditions may differ.

Legend:
P. falciparum 3D7 = experiment: In vitro blood stage antimalarial efficacy, [3H]hypoxanthine uptake, strain 3D7; format: cell-based; conditions: Plasmodium falciparum, read-out: IC50
Description: (§1) In Vitro Blood Stage Antimalarial Efficacy Evaluation. New compounds were tested against a panel of strains of P. falciparum.
(§2) Test compounds were initially dissolved in DMSO and diluted 400 fold in RPMI 1640 culture medium supplemented with 25 mM Hepes, 32 mM NaHCO3 and 10% Albumax I (Gibco, NY). These solutions were subsequently serially diluted two-fold with a Beckman Biomek® 1000 Robot (Fullerton, Calif.) over 11 different concentrations. The parasites were exposed to serial dilutions of each compound for 48 hrs and incubated at 37° C. with 5% O2, 5% CO2 and 90% N2 prior to the addition of [^3H]hypoxanthine. After a further incubation of 18 hrs, parasite DNA was harvested from each microtiter well using Packard Filtermate™ 196 Harvester (Meriden, Conn.) onto glass filters. Uptake of [^3H]hypoxanthine was measured with a Packard TopCount Liquid Scintillation Counter (Packard Instrument Co.).

[1] = tested on: multi-drug resistant P. falciparum Thailand T24 strain; experiment: In vivo efficacy in immunocompromised BXN mice infected with P. falciparum T24; conditions: Plasmodium falciparum, 96 h, oral once daily for 4 days
Description: Antimalarial efficacy data was obtained by evaluating new compounds in two rodent models: (I) Swiss mice infected with rodent malaria strain P. berghei; (II) Immunocompromised BXN mice infected with either the sensitive P. falciparum African NF54 strain or the multi-drug resistant P. falciparum Thailand T24 strain.

rodent P. berghei = conditions: for Primary therapeutic index / Secondary therapeutic index: Sprague-Dawley, rat, in vivo, po; for MCureD (minimum curative dose): rodent P. berghei, administered orally
Description: Antimalarial potency was measured by determination of the MCD (minimum clearance dose), a commonly used efficacy measurement. The primary therapeutic indices, which were obtained by using the MCDs as the effective parameters, were calculated. A secondary therapeutic indices measure of antimalarial potency was determined by use of the dose for the MCureD (minimum curative dose).

Plasmodium cynomolgi = experiment: Radical curative activity in relapsed Rhesus monkeys; format: in vivo; conditions: for Monkeys cured: co-administered with chloroquine; for Days post-treatment (relapse) / Results (radical curative test): with CQ 10 mg/kg/day for 7 days, one value per monkey
Description: Compounds with antihypnozoite activity will delay the relapse or radically cure the infection. […] Relapse was expected in the control group. Relapse in the treated group indicates failure of the test compounds. […] After standard treatment, blood smears were monitored daily for 4 consecutive days of negative results and 2 times weekly for 2 weeks.

Plasmodium berghei = experiment: Oral prophylactic test in mice; format: in vivo; conditions: for Mice infected and treated/Mice surviving day 60: oral; for Protection from malaria (oral prophylactic activity): mice, single dose of 0.5 mg/kg within 2 days pre-infection through 2 days post-infection
Description: Derivative compounds were also tested for oral prophylactic activity.
CD-I male or female mice, 5 weeks of age, were infected with 5×10^4 parasitized erythrocytes of Plasmodium berghei strain. Blood films were taken on day +6 and weekly thereafter until day+30. […]

P. falciparum V1S = experiment: microbe, parasite or virus in culture; format: cell-based; conditions: Plasmodium falciparum
Description: as §1, §2

[2] = Drug 2 at 15 mg/kg PO 1 daily for 3 days
[3] = Drug 2 at 30 mg/kg PO 1 daily for 3 days
[4] = day of treatment 1, dose 0.5 mg/kg
[5] = day of treatment 1, dose 2 mg/kg
[6] = day of treatment 1, dose 8 mg/kg
[7] = day of treatment 1, dose 32 mg/kg
[8] = day of treatment 2, dose 0.5 mg/kg
[9] = day of treatment 2, dose 2 mg/kg
[10] = day of treatment 2, dose 8 mg/kg
[11] = day of treatment 2, dose 32 mg/kg
[12] = day of treatment −1, dose 0.5 mg/kg
[13] = day of treatment −1, dose 2 mg/kg
[14] = day of treatment −1, dose 8 mg/kg
[15] = day of treatment −1, dose 32 mg/kg
[16] = day of treatment −2, dose 0.5 mg/kg
[17] = day of treatment −2, dose 2 mg/kg
[18] = day of treatment −2, dose 8 mg/kg
[19] = day of treatment −2, dose 32 mg/kg

SMILES	IC50 (P. falciparum 3D7) [nM]	ED50 [1] [mg/kg]	Primary therapeutic index (rodent P. berghei)	Secondary therapeutic index (rodent P. berghei)	MCureD (minimum curative dose) (rodent P. berghei) [mg/kg]	Monkeys cured (Plasmodium cynomolgi; 15 mg/kg/day level)	Monkeys cured (Plasmodium cynomolgi; 30 mg/kg/day level)	Days post-treatment (relapse) (Plasmodium cynomolgi; [2])	Results (radical curative test) (Plasmodium cynomolgi; [2])	Days post-treatment (relapse) (Plasmodium cynomolgi; [3])	Results (radical curative test) (Plasmodium cynomolgi; [3])	Mice infected and treated/Mice surviving day 60 (Plasmodium berghei; [4])	Mice infected and treated/Mice surviving day 60 (Plasmodium berghei; [5])	Mice infected and treated/Mice surviving day 60 (Plasmodium berghei; [6])	Mice infected and treated/Mice surviving day 60 (Plasmodium berghei; [7])	Mice infected and treated/Mice surviving day 60 (Plasmodium berghei; [8])	Mice infected and treated/Mice surviving day 60 (Plasmodium berghei; [9])	Mice infected and treated/Mice surviving day 60 (Plasmodium berghei; [10])	Mice infected and treated/Mice surviving day 60 (Plasmodium berghei; [11])	Mice infected and treated/Mice surviving day 60 (Plasmodium berghei; [12])	further results
CC[C@@H](N)[C@H](O)[C@H](O)[C@H](COC)[C@@H]1CC[C@@]23CC24c2nc5ccc(OC)cc5cc2C(=O)N[C@H]4CN13 (stereo partly shown) [Formula B]	0.19 ± 0.04	0.27	237	53	14.2	one out of two monkeys	all monkeys	42 days and no relapse	delayed relapse; also recorded: radical curative	no relapse	radical curative	5/5	5/5	5/5	5/5	5/5	5/5	5/5	5/5	5/5	Mice infected and treated/Mice surviving day 60 (Plasmodium berghei; [13]): 5/5; Mice infected and treated/Mice surviving day 60 (Plasmodium berghei; [14]): 5/5; Mice infected and treated/Mice surviving day 60 (Plasmodium berghei; [15]): 5/5; Mice infected and treated/Mice surviving day 60 (Plasmodium berghei; [16]): 5/5; Mice infected and treated/Mice surviving day 60 (Plasmodium berghei; [17]): 5/5; Mice infected and treated/Mice surviving day 60 (Plasmodium berghei; [18]): 5/5; Mice infected and treated/Mice surviving day 60 (Plasmodium berghei; [19]): 5/5; Protection from malaria (oral prophylactic activity) (Plasmodium berghei): completely protected; IC50 (P. falciparum V1S): 0.26 ± 0.05 nM
COC[C@@H]([C@@H](O)[C@@H](O)[C@H](N)Cc1ccccc1)[C@@H]1CC[C@@]23CC24c2nc5ccc(OC)cc5cc2C(=O)N[C@H]4CN13 (stereo partly shown) [Formula C]	0.22 ± 0.05	0.18	290	72	9.82	one out of two monkeys	all monkeys	53 days and no relapse	delayed relapse; also recorded: radical curative	no relapse	radical curative	5/5	5/5	5/5	5/5	5/5	5/5	5/5	5/5	5/5	Mice infected and treated/Mice surviving day 60 (Plasmodium berghei; [13]): 5/5; Mice infected and treated/Mice surviving day 60 (Plasmodium berghei; [14]): 5/5; Mice infected and treated/Mice surviving day 60 (Plasmodium berghei; [15]): 5/5; Mice infected and treated/Mice surviving day 60 (Plasmodium berghei; [16]): 5/5; Mice infected and treated/Mice surviving day 60 (Plasmodium berghei; [17]): 5/5; Mice infected and treated/Mice surviving day 60 (Plasmodium berghei; [18]): 5/5; Mice infected and treated/Mice surviving day 60 (Plasmodium berghei; [19]): 5/5; Protection from malaria (oral prophylactic activity) (Plasmodium berghei): completely protected; IC50 (P. falciparum V1S): 0.12 ± 0.03 nM
